Legend:
[1] = Inhibition of [125I]L-T3 binding to rat hepatic 3,5,3''-triiodo-L-thyronine receptor
[2] = test system: Rattus norvegicus; experiment: Heart weight was determined after administration to rats at 25 mg/kg perorally for 7 days (in vivo on cardiovascular activity)
[3] = test system: Rattus norvegicus; experiment: Atrial tension was determined after administration to rats at 25 mg/kg for 7 days at 20 pulse/min
[4] = test system: Rattus norvegicus; experiment: Atrial tension was determined after administration to rats at 25 mg/kg for 7 days at 40 pulse/min
[5] = test system: Rattus norvegicus; experiment: Heart rate was determined after administration to rats at 25 mg/kg perorally for 7 days (in vivo on cardiovascular activity)
[6] = test system: Rattus norvegicus; experiment: Atrial tension was determined after administration to rats at 100 ug/Kg for 7 days at 20 pulse/min; assay type: functional, Cardiac atrium
[7] = test system: Rattus norvegicus; experiment: Heart rate was determined after administration to rats at 100 ug/Kg perorally for 7 days (in vivo on cardiovascular activity); assay type: functional
[8] = test system: Rattus norvegicus; experiment: Atrial tension was determined after administration to rats at 100 ug/Kg for 7 days at 40 pulse/min; assay type: functional, Cardiac atrium
[9] = test system: Rattus norvegicus; experiment: Heart weight was determined after administration to rats at 100 ug/Kg perorally for 7 days (in vivo on cardiovascular activity); assay type: functional

Compound | IC50 [1] [nM] | other results
Cc1cc(NC(=O)C(=O)O)cc(C)c1Oc1cccc(-c2ccccc2)c1 | 32 | 
CCc1cc(Oc2c(C)cc(NC(=O)C(=O)O)cc2C)ccc1O | 0.25 | 
Cc1cc(NC(=O)C(=O)O)cc(C)c1Oc1ccc(O)c(C2CCCCC2)c1 | 2.2 | Heart weight [2]: 4.4; Developed tension [3]: 7.6%; Developed tension [4]: 12.6%; Heart rate [5]: 6.3
Cc1cc(NC(=O)C(=O)O)cc(C)c1S(=O)(=O)c1ccc(O)c(C2CCCCC2)c1 | 1.9 | 
Cc1cc(NC(=O)C(=O)O)cc(C)c1Sc1ccc(O)c(C2CCCCC2)c1 | 2 | 
N[C@@H](Cc1cc(I)c(Oc2ccc(O)c(I)c2)c(I)c1)C(=O)O [LIOTHYRONINE] |  | Developed tension [6]: 18.2%; Heart rate [7]: 52.5; Developed tension [8]: 12.7%; Heart weight [9]: 38.9

More lines, main results first:

IC50 [1] [nM] | Compound | other results
0.64 | Cc1cc(NC(=O)C(=O)O)cc(C)c1Oc1ccc(O)c(-c2cccc(Cl)c2)c1 | 
0.17 | Cc1cc(NC(=O)C(=O)O)cc(C)c1Oc1ccc(O)c(-c2ccccc2Cl)c1 | 
1.9 | Cc1cc(NC(=O)C(=O)O)cc(C)c1Oc1ccc(O)c(-c2ccccc2)c1 | Developed tension [3]: 3.7%
5.4 | Cc1cc(Oc2c(C)cc(NC(=O)C(=O)O)cc2C)ccc1O | 
0.92 | Cc1cc(NC(=O)C(=O)O)cc(C)c1Oc1ccc(O)c(-c2cccc(C(F)(F)F)c2)c1 | 
14 | Cc1cc(NC(=O)C(=O)O)cc(C)c1Oc1ccc(O)c(-c2ccc(C(F)(F)F)cc2)c1 | 
1.9 | Cc1cc(NC(=O)C(=O)O)cc(C)c1Oc1ccc(O)c(-c2cccc(F)c2)c1 | 
9 | Cc1ccc(-c2cc(Oc3c(C)cc(NC(=O)C(=O)O)cc3C)ccc2O)cc1 | 

— ChEMBL document CHEMBL1133248, “Synthesis and biological activity of phenoxyphenyl oxamic acid derivatives related to L-thyronine” (Bioorg Med Chem Lett, 2000)
